Test results taken from patent US20150105252A1, “SUBSTITUTED PYRAZOLES AS HERBICIDES” (E I DU PONT DE NEMOURS AND COMPANY, priority 2013, published 2015).

How the values were obtained:
barnyardgrass [1] = assay: Test A preemergence; assay type: in vivo, Echinochloa crus-galli; details: preemergence
In short: (§1)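 Visual injury ratings, 0 = no effect to 100 = complete control, taken about 10 days after treatment against untreated controls. Test chemicals, in a non-phytotoxic surfactant-containing solvent, were sprayed onto soil preemergence or onto one- to two-leaf plants (2–10 cm) postemergence, in loam–sand soil under greenhouse conditions.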

crabgrass, large = assay: Test A postemergence; assay type: in vivo, Digitaria sanguinalis
In short: as §1

velvetleaf [2] = assay: Test A postemergence; assay type: in vivo, Abutilon theophrasti
In short: as §1

corn [3] = assay: Test A postemergence; assay type: in vivo, Zea mays
In short: as §1

blackgrass = assay: Test C preemergence; assay type: in vivo, Alopecurus myosuroides; details: for Plant response rating (scale of 0 to 100), Blackgrass: Preemergence, 250 g ai/ha; for Blackgrass plant response rating / Plant response rating, Blackgrass: preemergence, 13 to 15 days; for Blackgrass plant response rating: scale 0 to 100 (0 no effect, 100 complete control); for Plant response rating, Blackgrass: 125 g ai/ha, scale 0 to 100, 0 = no effect, 100 = complete control
In short: (§2)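 In this greenhouse assay, seeded soil (loam plus sand) or emerged seedlings in peat-vermiculite medium were treated with formulated compound. Roughly two weeks later (13–15 days), each species was scored visually relative to controls, from 0 for no effect to 100 for complete control.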

ryegrass, Italian = assay: Test C preemergence; assay type: in vivo, Lolium multiflorum; details: for Plant response rating (scale of 0 to 100), Ryegrass, Italian: Preemergence, 250 g ai/ha; for Ryegrass, Italian plant response rating / Plant response rating, Ryegrass, Italian: preemergence, 13 to 15 days; for Ryegrass, Italian plant response rating: scale 0 to 100 (0 no effect, 100 complete control); for Plant response rating, Ryegrass, Italian: 125 g ai/ha, scale 0 to 100, 0 = no effect, 100 = complete control
In short: as §2

wheat = assay: Test C preemergence; assay type: in vivo, Triticum aestivum; details: for Plant response rating (scale of 0 to 100), Wheat: Preemergence, 250 g ai/ha; for Wheat plant response rating / Plant response rating, Wheat: preemergence, 13 to 15 days; for Wheat plant response rating: scale 0 to 100 (0 no effect, 100 complete control); for Plant response rating, Wheat: 125 g ai/ha, scale 0 to 100, 0 = no effect, 100 = complete control
In short: as §2

galium = assay: Test C preemergence; assay type: in vivo, Galium aparine; details: for Plant response rating (scale of 0 to 100), Galium: Preemergence, 250 g ai/ha; for Galium plant response rating / Plant response rating, Galium: preemergence, 13 to 15 days; for Galium plant response rating: scale 0 to 100 (0 no effect, 100 complete control); for Plant response rating, Galium: 125 g ai/ha, scale 0 to 100, 0 = no effect, 100 = complete control
In short: as §2

corn [4] = assay: Test C preemergence; assay type: in vivo, Zea mays; details: for Plant response rating (scale of 0 to 100), Corn: Preemergence, 250 g ai/ha; for Corn plant response rating / Plant response rating, Corn: preemergence, 13 to 15 days; for Corn plant response rating: scale 0 to 100 (0 no effect, 100 complete control); for Plant response rating, Corn: 125 g ai/ha, scale 0 to 100, 0 = no effect, 100 = complete control
In short: as §2

johnsongrass = assay: Test C preemergence; assay type: in vivo, Sorghum halepense; details: for Plant response rating (scale of 0 to 100), Johnsongrass: Preemergence, 250 g ai/ha; for Johnsongrass plant response rating / Plant response rating, Johnsongrass: preemergence, 13 to 15 days; for Johnsongrass plant response rating: scale 0 to 100 (0 no effect, 100 complete control); for Plant response rating, Johnsongrass: 125 g ai/ha, scale 0 to 100, 0 = no effect, 100 = complete control
In short: as §2

pigweed = assay: Test C preemergence; assay type: in vivo, Amaranthus retroflexus; details: for Plant response rating (scale of 0 to 100), Pigweed: Preemergence, 250 g ai/ha; for Pigweed plant response rating / Plant response rating, Pigweed: preemergence, 13 to 15 days; for Pigweed plant response rating: scale 0 to 100 (0 no effect, 100 complete control); for Plant response rating, Pigweed: 125 g ai/ha, scale 0 to 100, 0 = no effect, 100 = complete control
In short: as §2

soybean = assay: Test C preemergence; assay type: in vivo, Glycine max; details: for Plant response rating (scale of 0 to 100), Soybean: Preemergence, 250 g ai/ha; for Soybean plant response rating / Plant response rating, Soybean: preemergence, 13 to 15 days; for Soybean plant response rating: scale 0 to 100 (0 no effect, 100 complete control); for Plant response rating, Soybean: 125 g ai/ha, scale 0 to 100, 0 = no effect, 100 = complete control
In short: as §2

barnyardgrass [5] = assay: Test C preemergence; assay type: in vivo, Echinochloa crus-galli; details: for Plant response rating (scale of 0 to 100), Barnyardgrass: Preemergence, 250 g ai/ha; for Barnyardgrass plant response rating / Plant response rating, Barnyardgrass: preemergence, 13 to 15 days; for Barnyardgrass plant response rating: scale 0 to 100 (0 no effect, 100 complete control); for Plant response rating, Barnyardgrass: 125 g ai/ha, scale 0 to 100, 0 = no effect, 100 = complete control
In short: as §2

oilseed rape = assay: Test C preemergence; assay type: in vivo, Brassica napus; details: for Plant response rating (scale of 0 to 100), Oilseed Rape: Preemergence, 250 g ai/ha; for Oilseed Rape plant response rating / Plant response rating, Oilseed Rape: preemergence, 13 to 15 days; for Oilseed Rape plant response rating: scale 0 to 100 (0 no effect, 100 complete control); for Plant response rating, Oilseed Rape: 125 g ai/ha, scale 0 to 100, 0 = no effect, 100 = complete control
In short: as §2

velvetleaf [6] = assay: Test C preemergence; assay type: in vivo, Abutilon theophrasti; details: for Plant response rating (scale of 0 to 100), Velvetleaf: Preemergence, 250 g ai/ha; for Velvetleaf plant response rating / Plant response rating, Velvetleaf: preemergence, 13 to 15 days; for Velvetleaf plant response rating: scale 0 to 100 (0 no effect, 100 complete control); for Plant response rating, Velvetleaf: 125 g ai/ha, scale 0 to 100, 0 = no effect, 100 = complete control
In short: as §2

[7] = 125 g ai/ha, visual injury, 0 to 100 scale, approx. 10 days
[8] = 500 g ai/ha, visual injury after approx. 10 days, 0 to 100 scale (0 no effect, 100 complete control)
[9] = Postemergence, 500 g ai/ha, 0 to 100 scale (0 no effect, 100 complete control)
[10] = postemergence, 125 g ai/ha, about 10 days, visual rating on 0 to 100 scale (0 no effect, 100 complete control)

CCNC(=O)c1cc(CC)n(Cc2ccnc(OC(F)F)c2)n1 [Compound 130]
Barnyardgrass plant response rating (barnyardgrass [1]; [7]): 90 | Barnyardgrass plant response rating (barnyardgrass [1]; [8]): 100 | Crabgrass, Large plant response rating (crabgrass, large; [9]): 90 | Crabgrass, Large plant response rating (crabgrass, large; [10]): 70 | Velvetleaf plant response rating (velvetleaf [2]; [9]): 100 | Velvetleaf plant response rating (velvetleaf [2]; [10]): 80 | Corn plant response rating (corn [3]; [9]): 90 | Corn plant response rating (corn [3]; [10]): 70 | Plant response rating (scale of 0 to 100), Blackgrass (blackgrass): 98 | Blackgrass plant response rating (blackgrass; 31 g ai/ha, visual rating): 25 | Blackgrass plant response rating (blackgrass; 62 g ai/ha): 98 | Plant response rating, Blackgrass (blackgrass): 98 | Plant response rating (scale of 0 to 100), Ryegrass, Italian (ryegrass, Italian): 98 | Ryegrass, Italian plant response rating (ryegrass, Italian; 31 g ai/ha, visual rating): 5 | Ryegrass, Italian plant response rating (ryegrass, Italian; 62 g ai/ha): 25 | Plant response rating, Ryegrass, Italian (ryegrass, Italian): 65 | Plant response rating (scale of 0 to 100), Wheat (wheat): 95 | Wheat plant response rating (wheat; 31 g ai/ha, visual rating): 0 | Wheat plant response rating (wheat; 62 g ai/ha): 35 | Plant response rating, Wheat (wheat): 40 | Plant response rating (scale of 0 to 100), Galium (galium): 100 | Galium plant response rating (galium; 31 g ai/ha, visual rating): 75 | Galium plant response rating (galium; 62 g ai/ha): 85 | Plant response rating, Galium (galium): 98 | Plant response rating (scale of 0 to 100), Corn (corn [4]): 85 | Corn plant response rating (corn [4]; 31 g ai/ha, visual rating): 5 | Corn plant response rating (corn [4]; 62 g ai/ha): 30 | Plant response rating, Corn (corn [4]): 45 | Plant response rating (scale of 0 to 100), Johnsongrass (johnsongrass): 95 | Johnsongrass plant response rating (johnsongrass; 31 g ai/ha, visual rating): 35 | Johnsongrass plant response rating (johnsongrass; 62 g ai/ha): 65 | Plant response rating, Johnsongrass (johnsongrass): 75 | Plant response rating (scale of 0 to 100), Pigweed (pigweed): 100 | Pigweed plant response rating (pigweed; 31 g ai/ha, visual rating): 100 | Pigweed plant response rating (pigweed; 62 g ai/ha): 100 | Plant response rating, Pigweed (pigweed): 100 | Plant response rating (scale of 0 to 100), Soybean (soybean): 98 | Soybean plant response rating (soybean; 31 g ai/ha, visual rating): 10 | Soybean plant response rating (soybean; 62 g ai/ha): 55 | Plant response rating, Soybean (soybean): 90 | Plant response rating (scale of 0 to 100), Barnyardgrass (barnyardgrass [5]): 100 | Barnyardgrass plant response rating (barnyardgrass [5]; 31 g ai/ha): 50 | Barnyardgrass plant response rating (barnyardgrass [5]; 62 g ai/ha): 85 | Plant response rating, Barnyardgrass (barnyardgrass [5]): 100 | Plant response rating (scale of 0 to 100), Oilseed Rape (oilseed rape): 100 | Oilseed Rape plant response rating (oilseed rape; 31 g ai/ha, visual rating): 75 | Oilseed Rape plant response rating (oilseed rape; 62 g ai/ha): 98 | Plant response rating, Oilseed Rape (oilseed rape): 98 | Plant response rating (scale of 0 to 100), Velvetleaf (velvetleaf [6]): 100 | Velvetleaf plant response rating (velvetleaf [6]; 31 g ai/ha, visual rating): 55 | Velvetleaf plant response rating (velvetleaf [6]; 62 g ai/ha): 100 | Plant response rating, Velvetleaf (velvetleaf [6]): 90

CCCNC(=O)c1cc(CC)n(Cc2ccnc(OC(F)F)c2)n1 [Compound 132]
Barnyardgrass plant response rating (barnyardgrass [1]; [7]): 100 | Barnyardgrass plant response rating (barnyardgrass [1]; [8]): 100 | Crabgrass, Large plant response rating (crabgrass, large; [9]): 90 | Crabgrass, Large plant response rating (crabgrass, large; [10]): 90 | Velvetleaf plant response rating (velvetleaf [2]; [9]): 100 | Velvetleaf plant response rating (velvetleaf [2]; [10]): 100 | Corn plant response rating (corn [3]; [9]): 90 | Corn plant response rating (corn [3]; [10]): 70 | Plant response rating (scale of 0 to 100), Blackgrass (blackgrass): 98 | Blackgrass plant response rating (blackgrass; 31 g ai/ha, visual rating): 95 | Blackgrass plant response rating (blackgrass; 62 g ai/ha): 98 | Plant response rating, Blackgrass (blackgrass): 98 | Plant response rating (scale of 0 to 100), Ryegrass, Italian (ryegrass, Italian): 98 | Ryegrass, Italian plant response rating (ryegrass, Italian; 31 g ai/ha, visual rating): 15 | Ryegrass, Italian plant response rating (ryegrass, Italian; 62 g ai/ha): 85 | Plant response rating, Ryegrass, Italian (ryegrass, Italian): 98 | Plant response rating (scale of 0 to 100), Wheat (wheat): 95 | Wheat plant response rating (wheat; 31 g ai/ha, visual rating): 15 | Wheat plant response rating (wheat; 62 g ai/ha): 15 | Plant response rating, Wheat (wheat): 70 | Plant response rating (scale of 0 to 100), Galium (galium): 100 | Galium plant response rating (galium; 31 g ai/ha, visual rating): 98 | Galium plant response rating (galium; 62 g ai/ha): 100 | Plant response rating, Galium (galium): 100 | Plant response rating (scale of 0 to 100), Corn (corn [4]): 95 | Corn plant response rating (corn [4]; 31 g ai/ha, visual rating): 55 | Corn plant response rating (corn [4]; 62 g ai/ha): 25 | Plant response rating, Corn (corn [4]): 95 | Plant response rating (scale of 0 to 100), Johnsongrass (johnsongrass): 100 | Johnsongrass plant response rating (johnsongrass; 31 g ai/ha, visual rating): 25 | Johnsongrass plant response rating (johnsongrass; 62 g ai/ha): 90 | Plant response rating, Johnsongrass (johnsongrass): 100 | Plant response rating (scale of 0 to 100), Pigweed (pigweed): 100 | Pigweed plant response rating (pigweed; 31 g ai/ha, visual rating): 100 | Pigweed plant response rating (pigweed; 62 g ai/ha): 100 | Plant response rating, Pigweed (pigweed): 100 | Plant response rating (scale of 0 to 100), Soybean (soybean): 95 | Soybean plant response rating (soybean; 31 g ai/ha, visual rating): 35 | Soybean plant response rating (soybean; 62 g ai/ha): 75 | Plant response rating, Soybean (soybean): 90 | Plant response rating (scale of 0 to 100), Barnyardgrass (barnyardgrass [5]): 100 | Barnyardgrass plant response rating (barnyardgrass [5]; 31 g ai/ha): 95 | Barnyardgrass plant response rating (barnyardgrass [5]; 62 g ai/ha): 100 | Plant response rating, Barnyardgrass (barnyardgrass [5]): 100 | Plant response rating (scale of 0 to 100), Oilseed Rape (oilseed rape): 100 | Oilseed Rape plant response rating (oilseed rape; 31 g ai/ha, visual rating): 75 | Oilseed Rape plant response rating (oilseed rape; 62 g ai/ha): 98 | Plant response rating, Oilseed Rape (oilseed rape): 100 | Plant response rating (scale of 0 to 100), Velvetleaf (velvetleaf [6]): 100 | Velvetleaf plant response rating (velvetleaf [6]; 31 g ai/ha, visual rating): 55 | Velvetleaf plant response rating (velvetleaf [6]; 62 g ai/ha): 100 | Plant response rating, Velvetleaf (velvetleaf [6]): 100
